US6835398B2, “Method of administering high-dose, oral magnesium for treatment of chronic pain syndrome of erythromelalgia” (priority 2001, dated 2004)
Entries after “also recorded” stand apart in the source; their conditions may differ.

Columns and labels:
[1] = tested on: patients with erythromelalgia (EM); test: Tolerability of oral magnesium products in patients (diarrhea, adverse effects, achievable dose)
Excerpt: (§1) Thirteen patients took nonprescription magnesium oxide ([…]) or magnesium-protein (Mg-protein) products in gradually escalating and divided doses totaling 0.6-5 grams/day elemental magnesium under their physicians' supervision.
(§2) Although magnesium's potential benefits for many disorders have been described, patients' lack of tolerance to traditional therapeutic doses has precluded widespread utilization. Indeed, some patients have difficulty tolerating the RDA of magnesium. […] All doses were divided and taken at 4-6 hour intervals with copious amounts of water. All patients had normal renal function, which is required for undertaking magnesium therapy.

[2] = tested on: patient with CRPS1 / erythromelalgia (EM); test: Case study patient #1 (CRPS1/EM): pain and symptom response; assay type: in vivo, human
Excerpt: A magnesium treatment regimen was then investigated.
When the infusions were postponed, small doses of the MgSO4 solution was mixed with water and ingested orally.

[3] = tested on: patients with erythromelalgia (EM); test: High-dose oral magnesium therapy in erythromelalgia patients: pain and symptom response; assay type: in vivo, human; conditions: for worsening of EM: one patient
Excerpt: as §1
Specifically, it is most important that the magnesium compound (sulfate, oxide, carbonate, etc.) be either very finely divided or dissolved. […] Ideally, dosing should begin at RDA levels and increased as tolerance increases, until pain and/or symptom reduction is achieved. This level can then be maintained longterm. This pain reduction and long term dosing can begin as low as 600 mg elemental Mg/day and may be increased until gastrointestinal distress resulting from administration is consistent. This may occur at a dosage as high as 5 g/day elemental magnesium or even higher. Preferably, at least 1 gm magnesium/day should be administered, more preferably 1.2 gm, more preferably 1.5 gm, still more preferably 2 gm Mg/day. Still more preferably 2.5 gm Mg/day, and most preferably at least 3 gm Mg/day should be administered. To reduce the likelihood of gastrointestinal distress, daily dosages should be divided into several smaller administrations of not more than 500 mg elemental magnesium, preferably not more than 250 mg, and more preferably not more than […] Magnesium per dose. These can be administered several times daily to achieve the correct total daily dose. Small doses taken every 1-2 hours can be used, as can slightly larger doses taken every 4-6 hours. The frequency and size of doses is not as important as the total daily dose, provided the patient can tolerate the regimen.
as §2

subjects = conditions: 250 mg two times daily, oral, one study; cited from earlier work

For `O=S(=O)([O-])[O-].[Mg+2]` [MgSO4, magnesium sulfate], which serum magnesium measurements (patient #1, also two hours after ingesting two grams of MgSO4) is on record?
The serum magnesium measurements was “normal”.

And the “repeated chemistries and urine studies” value (patient #1, up to 12 grams/day orally)?
Its value is “normal”.

What about the adverse effects ([1]; patient #1) of the same compound?
The adverse effects was “only occasional, mild adverse effects (loose stools, blurred vision)”.

And the daily dose reached ([1]; patient #1, 50% MgSO4 solution mixed with water, oral, increased very gradually)?
Its daily dose reached is 12 grams MgSO4/day.

And the “pain and symptom response” value [2]?
The value was “Pain was completely eliminated; also recorded: nearly total remission from EM”.

What does the source list for `COc1ccc([C@@H]2Sc3ccccc3N(CCN(C)C)C(=O)[C@@H]2OC(C)=O)cc1` [diltiazem]?
pain and symptom response [2]: greater, but still limited, benefit; worsening of EM [3]: worsening

Which dose reached ([1]; one patient unable to tolerate 2 grams of magnesium tablets, blended in water) does the source give for `[O]=[Mg]` [magnesium oxide] here?
The dose reached was 4.5 grams/day.

What about the “pain and function response” value ([3]; person with CIPD and severe EM, escalating doses to 4-5 grams/day) of the same compound?
The value was “significantly less pain and improved function”.

And the “pain and flaring response” value ([3]; person with EM, escalating doses to 4-5 grams/day, within two weeks)?
The value was “marked reduction in pain and flaring”.

With `[Mg+2]` [magnesium] as the compound, how does the “adverse effects in subjects” value (subjects) read?
Its value is 45.7%.

And the patients who improved ([3]; 4 of the 6 patients who reached doses above 1 gram/day (1.2 to 7 grams/day))?
Its patients who improved is 67%.

And the “patients who obtained benefit” value ([3]; 6 of 8 who reached therapeutic levels, with the two already known cases)?
Its value is 75%.

What about the “patients who obtained substantial pain reduction and improvement in other symptoms” value ([3]; escalating divided doses totaling 0.6-5 grams/day elemental magnesium, 13 refractory patients) of the same compound?
The value was “eight of these thirteen”.

And the “worsening of EM” value [3]?
Its value is “worsened”.

What about the “effectiveness and tolerability compared with nifedipine and/or diltiazem” value ([3]; patients who had previously received nifedipine and/or diltiazem) of the same compound?
The value was “more effective and better tolerated”.

And the “patients who reported improvement” value ([3]; six of 11 EM patients, after 2 months)?
The value was 55%.
